Test: Micro-cantilever deflection on ligand-receptor binding (biotin-coated micro-cantilever immersed in water in small vessel)
From the text: Referring to FIG. 1, a micro-cantilever 10 is fixed at one end to a block 12. The micro-cantilever 10 is generally V-shaped in plan, comprising two converging strips 13,14, which are integral with a transverse cross strip 15. It projects 0.2 mm from the block 12, the strips 13 and 14 each being 24 microns wide and the entire micro-cantilever 10 is of silicon nitride of thickness 0.6 microns. The top surface of the micro-cantilever 10 is coated with a 5 nm layer of chromium followed by a 13 nm layer of gold, to improve its optical reflectivity. The gold on one strip 13 is then coated with octadecanethiol, which forms a self-assembled, highly ordered monolayer on gold, and biotin is then bonded to this monolayer. Biotin acts as a selective receptor for avidin.
Referring now to FIG. 2 any deflection or twisting of the micro-cantilever 10 is detected optically, by focusing a light beam from a laser diode 16 onto the cross strip 15, and detecting the reflection with a quadrant photodiode 18. The light intensities detected by the four segments of the photodiodo 19 may be used to determine the deflection of the cross strip 15. If the micro-cantilever 10 is exposed to a solution of avidin, which binds to the biotin, this changes the surface stress of the strip 13, causing the micro-cantilever 10 to twist, so changing the inclination of the cross strip 15.
The time at which the avidin is injected is indicated by the arrow A. Before this time the deflection is substantially constant. The gradual change in deflection over a period of about five minutes, the deflection then reaching a new, steady value differing by h from its initial value. The bending is caused by the surface stress change resulting from the reaction; the change in surface stress is, at least approximately, equal to the change of surface energy, which can be related to the concentration c or the ligand and the equilibrium constant K of the binding reaction onto the surface (i.e. ka/kd, where ka is the adsorption coefficient and kd is the desorption coefficient).

Row | binding strength to biotin relative to immunoglobulin G (FIG. 5, avidin displaces bound immunoglobulin G) | further deflection of the micro-cantilever (FIG. 5, avidin injected (arrow Q) after IgG had bound to biotin, arbitrary units) | deflection of the micro-cantilever resulting from injection (FIG. 5, IgG injected first (arrow P), arbitrary units, steady value after several minutes) | deflection resulting from the initial injection (FIG. 6, concentration in vessel 0.047 μM, after about 10 minutes, arbitrary units) | deflection resulting from the second injection (FIG. 6, concentration raised to 0.068 μM, after a further 10 minutes, arbitrary units) | Substance
1 | binds to biotin more strongly | about 200 units |  |  |  | avidin
2 |  |  | about 200 units | about 235 units | about 290 units | immunoglobulin G

Source: US20020072127A1, “Assay of chemical binding” (priority 2000, published 2002)
